# Test results reported in patent US20220175781A1, “CD40L COMPOSITIONS AND METHODS FOR TUNABLE REGULATION” (Obsidian Therapeutics, Inc., priority 2019, published 2022).
# Like-named read-outs stand apart in the source and are kept apart here.
# Legend:
# Jurkat cells [1] = details: Jurkat cells expressing OT-001662; for Off kinetics (CD40L surface expression, FACS): induced with TMP 50 μM
# Description: Kinetics were tested using stably transduced Jurkat cells expressing OT-001662. To study the kinetics of turning on the expression of CD40L, cells were treated with TMP (5 or 50 μM) and fixed for FACS after: 0, 3, 6, 9, 24, 48 hours. At the end of the experiment all fixed were stained and analyzed via FACS in parallel. To study the kinetics of turning off expression, expression was first induced in Jurkat cells with 50 μM TMP. The cells were then washed to remove TMP and fixed after 0, 3, 6, 9, 24 hours, stained and analyzed via FACS in parallel.
# T cells (CD4 and CD8) = assay: Cleavage resistant CD40L expression and TMP regulation in T cells; format: cell-based
# Description: T cells were transduced with OT-001668 and on day 4, the percentage of CD40L expressing T cells (within the both CD4 and CD8) subpopulations was calculated.
# T cells were transduced with ecDHFR regulated construct OT-001671 that include a CD40L protein that was resistant to cleavage. On day 4 cells were treated with 10 μM TMP for 24 hours. […] In an independent experiment, T cells transduced with varying volumes of virus corresponding to OT-001671 were treated with increasing doses of TMP for 24 hours. In Table 41, 0.5 μL, 2 μL, and 10 μL indicate the different volumes of virus that were used.
# Jurkat cells [2] = assay: Linker length, ER regulated CD40L, % CD40L positive Jurkat cells; format: cell-based
# Description: Jurkat cells were lentivirally transduced and 24 hours after transduction were treated with DMSO or 1 μM Bazedoxifene for another 24 hours and analyzed by flow cytometry for surface expression of CD40L. […] In Table 33, SR indicates stabilization ratio.
molecule,measurement,setting,value
COc1cc(Cc2cnc(N)nc2N)cc(OC)c1OC [TMP],"On kinetics (CD40L surface expression, FACS)","Jurkat cells [1]; TMP 5 μM, 0 hours",743
same,"On kinetics (CD40L surface expression, FACS)","Jurkat cells [1]; TMP 5 μM, 3 hours",886
same,"On kinetics (CD40L surface expression, FACS)","Jurkat cells [1]; TMP 5 μM, 6 hours",1096
same,"On kinetics (CD40L surface expression, FACS)","Jurkat cells [1]; TMP 5 μM, 9 hours",1392
same,"On kinetics (CD40L surface expression, FACS)","Jurkat cells [1]; TMP 5 μM, 24 hours",2435
same,"On kinetics (CD40L surface expression, FACS)","Jurkat cells [1]; TMP 50 μM, 0 hours",743
same,"On kinetics (CD40L surface expression, FACS)","Jurkat cells [1]; TMP 50 μM, 3 hours",890
same,"On kinetics (CD40L surface expression, FACS)","Jurkat cells [1]; TMP 50 μM, 6 hours",1180
same,"On kinetics (CD40L surface expression, FACS)","Jurkat cells [1]; TMP 50 μM, 9 hours",1466
same,"On kinetics (CD40L surface expression, FACS)","Jurkat cells [1]; TMP 50 μM, 24 hours",3952
same,"Off kinetics (CD40L surface expression, FACS)",Jurkat cells [1]; 0 hours after wash,3952
same,"Off kinetics (CD40L surface expression, FACS)",Jurkat cells [1]; 3 hours after wash,1631
same,"Off kinetics (CD40L surface expression, FACS)",Jurkat cells [1]; 6 hours after wash,1620
same,"Off kinetics (CD40L surface expression, FACS)",Jurkat cells [1]; 9 hours after wash,1037
same,"Off kinetics (CD40L surface expression, FACS)",Jurkat cells [1]; 24 hours after wash,1287
same,TMP dose response (percentage of CD40L positive cells),"T cells (CD4 and CD8); CD4+, 0.5 μL virus OT-001671, TMP 0.001 μM",17.9%
same,TMP dose response (percentage of CD40L positive cells),"T cells (CD4 and CD8); CD4+, 0.5 μL virus OT-001671, TMP 0.01 μM",18.8%
same,TMP dose response (percentage of CD40L positive cells),"T cells (CD4 and CD8); CD4+, 0.5 μL virus OT-001671, TMP 0.1 μM",20.4%
same,TMP dose response (percentage of CD40L positive cells),"T cells (CD4 and CD8); CD4+, 0.5 μL virus OT-001671, TMP 1 μM",20.3%
same,TMP dose response (percentage of CD40L positive cells),"T cells (CD4 and CD8); CD4+, 0.5 μL virus OT-001671, TMP 10 μM",27.5%
same,TMP dose response (percentage of CD40L positive cells),"T cells (CD4 and CD8); CD4+, 2 μL virus OT-001671, TMP 0.001 μM",11.8%
same,TMP dose response (percentage of CD40L positive cells),"T cells (CD4 and CD8); CD4+, 2 μL virus OT-001671, TMP 0.01 μM",12.2%
same,TMP dose response (percentage of CD40L positive cells),"T cells (CD4 and CD8); CD4+, 2 μL virus OT-001671, TMP 0.1 μM",14.9%
same,TMP dose response (percentage of CD40L positive cells),"T cells (CD4 and CD8); CD4+, 2 μL virus OT-001671, TMP 1 μM",17.6%
same,TMP dose response (percentage of CD40L positive cells),"T cells (CD4 and CD8); CD4+, 2 μL virus OT-001671, TMP 10 μM",30%
same,TMP dose response (percentage of CD40L positive cells),"T cells (CD4 and CD8); CD4+, 10 μL virus OT-001671, TMP 0.001 μM",4.74%
same,TMP dose response (percentage of CD40L positive cells),"T cells (CD4 and CD8); CD4+, 10 μL virus OT-001671, TMP 0.01 μM",6.79%
same,TMP dose response (percentage of CD40L positive cells),"T cells (CD4 and CD8); CD4+, 10 μL virus OT-001671, TMP 0.1 μM",7.65%
same,TMP dose response (percentage of CD40L positive cells),"T cells (CD4 and CD8); CD4+, 10 μL virus OT-001671, TMP 1 μM",17.2%
same,TMP dose response (percentage of CD40L positive cells),"T cells (CD4 and CD8); CD4+, 10 μL virus OT-001671, TMP 10 μM",43.7%
same,TMP dose response (percentage of CD40L positive cells),"T cells (CD4 and CD8); CD8+, 0.5 μL virus OT-001671, TMP 0.001 μM",0.59%
same,TMP dose response (percentage of CD40L positive cells),"T cells (CD4 and CD8); CD8+, 0.5 μL virus OT-001671, TMP 0.01 μM",0.56%
same,TMP dose response (percentage of CD40L positive cells),"T cells (CD4 and CD8); CD8+, 0.5 μL virus OT-001671, TMP 0.1 μM",0.45%
same,TMP dose response (percentage of CD40L positive cells),"T cells (CD4 and CD8); CD8+, 0.5 μL virus OT-001671, TMP 1 μM",0.43%
same,TMP dose response (percentage of CD40L positive cells),"T cells (CD4 and CD8); CD8+, 0.5 μL virus OT-001671, TMP 10 μM",2.44%
same,TMP dose response (percentage of CD40L positive cells),"T cells (CD4 and CD8); CD8+, 2 μL virus OT-001671, TMP 0.001 μM",0.6%
same,TMP dose response (percentage of CD40L positive cells),"T cells (CD4 and CD8); CD8+, 2 μL virus OT-001671, TMP 0.01 μM",0.59%
same,TMP dose response (percentage of CD40L positive cells),"T cells (CD4 and CD8); CD8+, 2 μL virus OT-001671, TMP 0.1 μM",0.88%
same,TMP dose response (percentage of CD40L positive cells),"T cells (CD4 and CD8); CD8+, 2 μL virus OT-001671, TMP 1 μM",1.29%
same,TMP dose response (percentage of CD40L positive cells),"T cells (CD4 and CD8); CD8+, 2 μL virus OT-001671, TMP 10 μM",5.57%
same,TMP dose response (percentage of CD40L positive cells),"T cells (CD4 and CD8); CD8+, 10 μL virus OT-001671, TMP 0.001 μM",1.18%
same,TMP dose response (percentage of CD40L positive cells),"T cells (CD4 and CD8); CD8+, 10 μL virus OT-001671, TMP 0.01 μM",0.89%
same,TMP dose response (percentage of CD40L positive cells),"T cells (CD4 and CD8); CD8+, 10 μL virus OT-001671, TMP 0.1 μM",0.95%
same,TMP dose response (percentage of CD40L positive cells),"T cells (CD4 and CD8); CD8+, 10 μL virus OT-001671, TMP 1 μM",2.87%
same,TMP dose response (percentage of CD40L positive cells),"T cells (CD4 and CD8); CD8+, 10 μL virus OT-001671, TMP 10 μM",12.4%
OT-001965: ER regulated CD40L construct with varied linker length (protein) MSLALSLTADQMVSALLDAEPPILYSEYDPTRPFSEASMMGLLTNLADRELVHMINWAKRVPGFVDLTLHDQVHLLECAWMEILMIGLVWRSMEHPGKLLFAPNLLLDRDQGKCVEGGVEIFDMLLATSSRFRMMNLQGEEFVCLKSIILLNSGVYTFLSSTLKSLEEKDHIHRVLDKITDTLIHLMAKAGLTLQQQHQRLAQLLLILSHIRHMSNKRMEHLYSMKCKNVVPLSDLLLEMLDAHRLGSGMIETYNQTSPRSAATGLPISMKIFMYLLTVFLITQMIGSALFAVYLHRRLDKIEDERNLHEDFVFMKTIQRCNTGERSLSLLNCEEIKSQFEGFVKDIMLNKEETKKENSFEMQKGDQNPQIAAHVISEASSKTTSVLQWAEKGYYTMSNNLVTLENGKQLTVKRQGLYYIYAQVTFCSNREASSQAPFIASLCLKSPGRFERILLRAANTHSSAKPCGQQSIHLGGVFELQPGASVFVNVTDPSQVSHGTGFTSFGLLKL,Percent of Jurkat cells expressing CD40L,Jurkat cells [2]; 1 μM Bazedoxifene,27%
same,SR,"Jurkat cells [2]; 1 μM Bazedoxifene versus DMSO, % CD40L positive Jurkat cells",9
same,Percent of Jurkat cells expressing CD40L,Jurkat cells [2]; DMSO,3%
